Patent publication US20140050668A1, “VISUALIZATION OF LIPID METABOLISM” (UNIVERSITAETSKLINIKUM HAMBURG-EPPENDORF, priority 2011, published 2014)
Entries after “also recorded” stand apart in the source; their conditions may differ.

Key:
LPL [1] = target: T1, LPL (Mus musculus, UniProt P11152); experiment: Organ distribution of 59Fe-SPIO- and 3H-triolein-labeled TRL after pre-injection of THL or heparin; type: in vivo; conditions: cold FVB mice; for uptake of 3H-triolein into BAT / uptake of 59Fe-SPIO into BAT: pre-injected 1 min before radiolabeled TRL i.v., organs 15 min after injection
T1 construct: from tissue; host or cells: living wild-type FVB mice (in vivo; endothelium of BAT, heart and other lipid-consuming tissues)
T1 sequence (P11152 28-474): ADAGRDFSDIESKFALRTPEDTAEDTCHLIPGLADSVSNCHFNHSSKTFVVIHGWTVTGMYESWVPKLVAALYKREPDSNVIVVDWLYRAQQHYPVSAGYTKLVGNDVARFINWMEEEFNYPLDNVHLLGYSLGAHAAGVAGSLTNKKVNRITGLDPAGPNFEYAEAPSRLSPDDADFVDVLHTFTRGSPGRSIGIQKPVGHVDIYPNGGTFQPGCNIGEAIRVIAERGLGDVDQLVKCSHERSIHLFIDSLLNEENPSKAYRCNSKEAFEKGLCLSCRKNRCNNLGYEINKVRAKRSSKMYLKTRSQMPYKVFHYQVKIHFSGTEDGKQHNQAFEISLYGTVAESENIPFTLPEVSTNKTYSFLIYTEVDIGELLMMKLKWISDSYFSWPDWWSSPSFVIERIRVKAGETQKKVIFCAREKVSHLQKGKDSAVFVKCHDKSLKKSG
Protocol: (§1) Turnover studies and organ distribution. For turnover studies, anesthetized mice were tail vein injected with 200 μl radiolabeled TRL. Lipoprotein turnover was determined from 10 μl plasma 0.5, 1, 2, 5 and 15 min after injection. After 15 min, blood was removed by cardiac puncture, the right atrium was opened, and the carcass was perfused through the left ventricle with PBS containing 50 U mL^1 heparin. Then, organs were harvested and weighed. For measurement of radioactivity, organs were solubilized in Solvable (PerkinElmer, Boston, USA, 0.1 mL per 10 mg organ), 200 μL were counted in scintillation fluid and TRL uptake was calculated as c.p.m. per mg organ. Oral fat tolerance tests were performed by gavage of 100 μL olive oil with [9,10-^3H(N)]-triolein (370 KBq per mouse). To measure lipoprotein production triton WR-1339 (Tyloxapol from Sigma; 0.5 mg per g body weight as 10% solution in PBS) was injected into the tail vein. Plasma was collected at indicated time points. For the measurement of hepatic production 1(3)-^3H glycerol (125 KBq per mouse) was injected prior to triton WR-1339. Lipids were extracted from plasma samples and ^3H-glycerol incorporated into triglycerides was measured as described above. For chylomicron production mice received ^3H-triolein in olive oil by gavage as described above directly after triton WR-1339 injection. Intestine-derived radioactivity in plasma was measured as described above. For manipulation of LPL function, THL (Roche, 12.5 mg ml^−1 DMSO) was diluted to 1.25 mg ml^−1 in 10% DMSO in PBS. Mice received 200 μL of either 0.25 mg THL, 50 U heparin (ratiopharm) or 10% DMSO in PBS (mock). After 1 min ^59Fe-SPIO- and ^3H-triolein-labeled TRL were injected and plasma clearance and organ uptake were determined as described above. For postprandial studies mice were i.p. injected with 0.25 mg THL or mock solution prior to gavage of 200 μL olive oil. Blood was collected at indicated time points and plasma triglyceride levels were determined.

LPL [2] = target: T1, LPL; experiment: Oral fat tolerance test in cold mice pre-treated with THL; type: in vivo; conditions: cold FVB mice; i.p. pre-treatment; versus mock-treated cold mice (no increase)
Protocol: as §1, with “For chylomicron production mice received ^3H-triolein in olive oil by gavage as described above directly after triton WR-1339 injection.” left out, “For manipulation of LPL function, THL (Roche, 12.5 mg ml^−1 DMSO) was diluted to 1.25 mg ml^−1 in 10% DMSO in PBS. Mice received 200 μL of either 0.25 mg THL, 50 U heparin (ratiopharm) or 10% DMSO in PBS (mock). After 1 min ^59Fe-SPIO- and ^3H-triolein-labeled TRL were injected and plasma clearance and organ uptake were determined as described above. For postprandial studies mice were i.p. injected with 0.25 mg THL or mock solution prior to gavage of 200 μL olive oil.” left out

LPL [3] = target: T1, LPL; experiment: MRI of SPIO-nanosome uptake after pre-injection of THL, heparin or chylomicrons; type: in vivo, mice; conditions: for uptake of SPIO-nanosomes into BAT, T2*-weighted MRI: cold-exposed FVB mice, pre-injection 1 min before SPIO-nanosomes
Protocol: Animals and diets. All experimental procedures were performed with approval from the animal care committees responsible for the University Medical Center Hamburg-Eppendorf. Animals were housed at 22° C. with ad libitum access to standard laboratory chow diet. We used male and female age-matched (16-22 weeks) FVB wildtype mice which were fasted 24 h or 4 h prior to the experiment. Fasting (22° C.) and cold exposure (4° C.) was performed in single cages for 24 h unless indicated otherwise.
For manipulation of LPL function, THL (Roche, 12.5 mg ml^−1 DMSO) was diluted to 1.25 mg ml^−1 in 10% DMSO in PBS. Mice received 200 μL of either 0.25 mg THL, 50 U heparin (ratiopharm) or PBS (mock). After 1 min, SPIO-nanosomes were injected, and plasma clearance and organ uptake were determined by dynamic MRI.
In vivo imaging studies. MRI was performed as described before^14. Briefly, all static and dynamic MRI measurements were performed with a clinical 3 Tesla MR scanner (Philips Medical Systems, Netherlands) equipped with a custom-made small animal solenoid coil. The dynamic measurements were based on a gradient-echo sequence (Supplementary table 3). The applied sequence is highly sensitive to susceptibility effects caused by local magnetic field inhomogeneities caused by SPIO-TRL. DICOM data were processed with ImageJ (http://rsbweb.nih.gov/ij/). SPIO-nanosomes were injected via a tail vein catheter.

BAT = experiment: Intravital confocal imaging of fluorescent-labeled TRL in BAT; type: in vivo, mice
Protocol: In vivo imaging studies. MRI was performed as described before. Briefly, all static and dynamic MRI measurements were performed with a clinical 3 Tesla MR scanner (Philips Medical Systems, Netherlands) equipped with a custom-made small animal solenoid coil. The dynamic measurements were based on a gradient-echo sequence (Supplementary table 3). The applied sequence is highly sensitive to susceptibility effects caused by local magnetic field inhomogeneities caused by SPIO-TRL. DICOM data were processed with Image (http://rsbweb.nih.gov/ij/). For cryo electron microscopy, SPIO-TRL were intravenously injected into control or cold wild-type FVB mice. After 30 min mice were sacrificed, BAT biopsies were taken and processed for transmission electron microscopy (TEM) as described. Micrographs were obtained with a FBI Eagle 4k CCD camera and a Technal 20 TEM operated at 200 kV. For environmental scanning electron microscopy studies of BAT anaesthetized mice were perfused with PBS-Heparin as above and organs were fixed with 2.5% glutaraldehyde in PBS, washed, and postfixed for 30 min with 1% […] in PBS. For intravital microscopy interscapular BAT was dissected in anaesthetized mice and visualized by a confocal microscope equipped with a resonant scanner (Nikon AIR). QD-labeled TRL and fluorescent probes were injected via a tail vein catheter and 15 or 30 confocal images per second were recorded. The acquired data sets were aligned to reduce object movements due to mouse breathing and denoised with a Savitzky-Golay filter in Nikon NIS Elements AR 3.10. Labeling, animations and quicktime-export were done with Adobe After Effects CS4.

Molecule | uptake of 3H-triolein into BAT (LPL [1]) | uptake of 59Fe-SPIO into BAT (LPL [1]) | uptake of TRL into the heart (LPL [1]; pre-injected before radiolabeled TRL) | plasma triglycerides after lipid gavage (LPL [2]) | uptake of SPIO-nanosomes into the heart (myocard), T2*-weighted MRI (LPL [3]; 24 h fasted FVB mice, inhibitor injected 1 min before SPIO-nanosomes) | uptake of SPIO-nanosomes into BAT, T2*-weighted MRI (LPL [3]) | fluorescent-labeled TRL initially bound to the vascular wall (BAT; heparin after initial TRL binding) | already internalized TRL particles (BAT; time-delayed heparin injection) | binding of a second bolus of TRL (BAT; time-delayed heparin injection)
CCCCCCCCCCC[C@@H](C[C@@H]1OC(=O)[C@H]1CCCCCC)OC(=O)[C@H](CC(C)C)NC=O [THL, Tetrahydrolipstatin] | abolished | abolished | inhibited | significant postprandial triglyceride response | not enhanced; also recorded: abolished | not enhanced; also recorded: abolished |  |  | 
heparin | blocked | blocked |  |  |  | blocked | released | no influence | blocked
